Source: PubChem BioAssay (NCI)
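In this assay, cells in 96-well plates receive the compound at five concentrations for 48 hours. Endpoints are linearly interpolated between the surrounding concentrations. At the TGI there is no net growth.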

Columns and labels:
Test in all cases: NCI-60 cell line screen, 48 h
[1] = tested on: SK-MEL-28 melanoma
[2] = tested on: T-47D breast
[3] = tested on: HL-60(TB) leukemia
[4] = tested on: NCI-H23 lung
[5] = tested on: IGROV1 ovarian
[6] = tested on: MDA-N
[7] = tested on: NCI-H460 lung
[8] = tested on: HOP-62 NSCLC
[9] = tested on: OVCAR-3 ovarian
[10] = tested on: UACC-62 melanoma
[11] = tested on: COLO 205 colon
[12] = tested on: U251 CNS
[13] = tested on: SNB-19 CNS
[14] = tested on: HCT-116 colon
[15] = tested on: UACC-257 melanoma
[16] = tested on: SF-295 CNS
[17] = tested on: K-562 leukemia
[18] = tested on: 786-0 renal
[19] = tested on: MCF7 breast
[20] = tested on: MOLT-4 leukemia
[21] = tested on: KM12 colon
[22] = tested on: CAKI-1 renal
[23] = tested on: M14 melanoma
[24] = tested on: NCI-H226 lung
[25] = tested on: SN12C renal
[26] = tested on: MDA-MB-435
[27] = tested on: SR leukemia
[28] = tested on: PC-3 prostate
[29] = tested on: RXF 393 renal
[30] = tested on: EKVX NSCLC
[31] = tested on: RPMI-8226 leukemia
[32] = tested on: SK-MEL-2 melanoma
[33] = tested on: HCT-15 colon
[34] = tested on: CCRF-CEM leukemia
[35] = tested on: HT29 colon
[36] = tested on: HOP-92 NSCLC
[37] = tested on: BT-549 breast
[38] = tested on: OVCAR-4 ovarian
[39] = tested on: HCC-2998 colon
[40] = tested on: NCI/ADR-RES ovarian
[41] = tested on: SF-539 CNS
[42] = tested on: A549 NSCLC
[43] = tested on: SK-MEL-5 melanoma
[44] = tested on: ACHN renal
[45] = tested on: TK-10 renal
[46] = tested on: SF-268 CNS
[47] = tested on: UO-31 renal
[48] = tested on: OVCAR-8 ovarian
[49] = tested on: SW-620 colon
[50] = tested on: NCI-H522 lung
[51] = tested on: LOX IMVI melanoma
[52] = tested on: OVCAR-5 ovarian
[53] = tested on: DU-145 prostate
[54] = tested on: MALME-3M melanoma
[55] = tested on: MDA-MB-231 breast
[56] = tested on: SK-OV-3 ovarian
[57] = tested on: A498 renal

Measured: TGI

O=c1c2cc(I)ccc2nc(-c2cccs2)n1O
79.4 µM: [45]
72 µM: [13]
77.5 µM: [2]
79.6 µM: [36]
98.4 µM: [22]
95.2 µM: [34]
80.4 µM: [51]
96.9 µM: [38] | [53]
61.2 µM: [42]
42.8 µM: [9]
not listed: [54] | [55] | [56] | [57]
> 100 µM: all other assays above

Cc1cc(C)n2c(nc3ccccc32)c1C#N
79.8 µM: [36]
not listed: [7] | [8] | [21] | [27] | [31] | [46] | [50]
> 100 µM: all other assays above
